# Results from patent US20210023223A1, “HYDROCARBON / LIPID - CAROTENOID COMPLEXES” (IP SCIENCE LIMITED, priority 2018, published 2021).
# Like-named read-outs stand apart in the source and are kept apart here.
# How the values were obtained:
# [1] = Spreadability of oil drops on the surface of water; format: physicochemical
# Procedure: (§1) 1. A petri dish of 13.5 cm diameter was filled to the brim with unheated water.
# (§2) 2. 0.3 ml of Olive or Sunflower oil was dropped onto the surface from a standardised height (30 cm) using a 1 ml pipette.
# (§3) 3. The resultant droplets were photographed and measured 30 sec after impact.
# (§4) 4. For increased reliability, the procedure was repeated 5 times.
# (§5) 5. Steps 1-4 were then repeated for Olive and Sunflower oils with or without carotenoids in different concentrations.
# [2] = test system: moderately obese volunteers; assay: Serum lipids after 20 mg lycopene for 1 month; format: in vivo, human
# Procedure: (§6) Study Design. The total number of volunteers recruited to take part in the study was 18 (9 male and 9 female subjects) Caucasians 40-67 years old.
# (§7) Products Formulated with Lycopene was developed and made by Lycotec Ltd. (Cambridge, United Kingdom). The daily dose was 1 capsule of 20 mg of lycopene, and it was taken with the main meal of the day. The period of administration was 1 month.
# (§8) Blood was collected by phlebotomy in the morning, in the hospital, from the arm veins of patients following night fast. The serum was separated from the rest of the clotted mass by centrifugation; aliquots were then stored in code-labelled tubes for blinded analysis and stored at −80° C. until use.
# [3] = Size of pork fat globules, microscopy; format: physicochemical; conditions: maximum doses
# Procedure: For measurement of lipid droplets and fat globules and quantification of their size binocular microscope Olympus BX41 was used with Cell^B software for morphometric analysis. All parameters were collected from 10 randomly selected microscopic fields at ×1000).
# When carotenoids were added to animal fat, with a relatively high percentage of saturated fatty acid, a similar trend in increased fat globules was observed, although to a lesser degree. The maximum doses of lycopene or astaxanthin caused a similar increase in the pork fat globules diameter, only 50%, FIG. 2 and table 3.
# [4] = Lycopene in serum and cerumen after 20 mg lycopene for 1 month; format: in vivo, human; conditions: n = 18; for concentration at 1 month: both sexes, human, oral, after 20 mg lycopene daily for one month
# Procedure: as §6, §7, §8
# For sample collection from the surface of the facial skin and samples of the cerumen all study participants were requested to avoid facial and ear hygienic manipulations for 24 hours before sampling, which was carried out in the morning in parallel with blood sample collection. Skin surface sample collection and preparation was performed as previously described. Briefly, samples were collected using polyester swabs from the surface of the facial skin (the sides of the nose). During the procedure two samples were taken (one swab per side). Each collected sample was placed on the surface of a microscope slide. A second microscope slide was pressed against the surface of the first one. This procedure provided a pair of identical smears. All slides with collected samples were coded to provide sample anonymity for blinded analysis and stored at −20° C. until further analysis.
# The lycopene concentration in all serum samples was measured in duplicate by high-performance liquid chromatography with modifications. Briefly, 400 μl of serum was mixed with 400 μl of ethanol and was extracted twice with 2 ml hexane. The combined hexane layers were evaporated to dryness in a vacuum (Scan Speed 32 centrifuge) and the residue reconstituted to a volume of 100 μl in sample solution (absolute ethanol—methylene chloride, 5:1, v/v). The specimens were centrifuged again (15 minutes at 10,000 g) and clear supernatant was transferred to HPLC vials. Five microliters of the extract was injected into an Acquity HSS T3 75×2.1 mm 1.8 μm column (Waters, USA) preceded by a Acquity HSS T3 1.8 μm VanGuard precolumn (Waters, USA) and eluted isocratically at 45° C. with the mobile phase (acetonitrile—0.08% phosphoric acid solution—tert-Butyl methyl ether, 70:5:25, v/v/v) at a flow rate of 0.5 ml/min. The lycopene peak was detected by a Photodiode Array Detector (Waters, USA) at 474 nm. The peak area was measured using Empower 3 software (Waters, Mass.). The lycopene concentration in serum samples was calculated by reference to an analytical standard (lycopene from tomato, L9879, Sigma, USA).
# [5] = test system: middle-aged volunteers, facial skin; assay: Lycopene trial, facial skin surface material; format: in vivo, human; conditions: 7 mg formulated lycopene daily, 4 weeks
# Procedure: Group II—15 middle-aged (7 males and 8 females, 48-65 years old) for lycopene intervention and
# Group II—participants received 7 mg formulated lycopene,
# Daily dose of each carotenoid product was taken in one capsule with the main evening meal for 4 weeks (from day 1 to day 28 of the study).
# For RSSC sample collection all participants of the study were requested to avoid facial hygienic manipulations for 24 hours before material collection, which was carried out in the morning. These samples were collected only before initiation of astaxanthin supplementation (day 0) and at the end of the study (day 29). RSSC sample collection and preparation was performed according to previously described procedures. Briefly, RSSC samples were collected using polyester swabs from the surface of the facial skin (the sides of the nose). During the procedure two samples were taken (one swab per side). Each collected sample was placed on the surface of a microscope slide. A second microscope slide was pressed against the surface of the first one. […] All slides with collected samples (i.e. four slides per study participant per time point) were coded to provide sample anonymity for blinded analysis. All collected samples were sent to the laboratory of Lycotec Ltd for further processing and eventual microscopic examination.
# For morphological analysis of RSSC samples one slide of the first pair was stained with hematoxylin and eosin in order to identify any cells or cell remnants. The second slide was stained using Oil Red O (Lipid Stain, ab150678, Abcam, Cambridge, UK) for lipid visualization and lipid droplet size evaluation. One slide from the other pair was stained with crystal violet solution (Gram staining) to assess the level of microorganism presence. The remaining slides were kept unstained for possible future use.
# The analysis of typical structural elements of the RSSC comprised lipid droplet measurements, counting characteristic lipid crystals and desquamated corneocytes, and evaluation of bacterial presence as previously described. The indicated micro objects/structures were quantified using Cell^B imaging software (Digital Imaging Solutions, Olympus, Japan). All microscopic samples were blinded before their examinations.
# Smears collected from the surface of the facial skin were fixed with methanol. Permeabilised corneocytes and sebum present in the material were stained for direct immunofluorescence using fluorescein isothiocyanate-conjugated monoclonal antibody against lycopene recently generated by our group. Fluorescent staining was visualised using Nikon Eclipse 50i microscope with fluorescence attachment. The semi-quantitative analysis was based on visually assessing fluorescence levels in corneocytes and surrounding sebum in 20 random fields of view at ×200 magnification. Fluorescence intensity in the samples was classified using the following scoring system: 0—no fluorescence; 0.5—traces of fluorescence; 1—weak fluorescence; 2—moderate fluorescence; 3—strong fluorescence of some cells or areas of sebum background; 4—extremely strong fluorescence (confluent fluorescent elements within corneocytes). Fluorescence assessment in each sample was repeated blindly three times.
# [6] = Spreadability of oil drops on the surface of water; format: physicochemical; remark: listed apart in the source
# Procedure: as §1, §2, §3, §4, §5
# [7] = 1 molecule of lycopene within about 120,000 molecules of oil lipids
# [8] = after 20 mg lycopene daily for one month
smiles,measurement,setting,value
CC(C)=CCC/C(C)=C/C=C/C(C)=C/C=C/C(C)=C/C=C/C=C(C)/C=C/C=C(C)/C=C/C=C(\C)CCC=C(C)C [Lycopene],Diameter of spread lipid drops relative to intact oil,[1]; [7],6-8 fold
same,Increase of spreadability on the surface of the water,[1]; olive oil,11 fold
same,HDL,[2]; [8],49.9 ± 3.0^ mg/dL
same,LDL,[2]; [8],121 ± 10.5 mg/dL
same,Triglycerides,[2]; [8],128 ± 9.7 mg/dL
same,HDL,"[2]; before, n = 18",49.2 ± 2.9^ mg/dL
same,LDL,"[2]; before, n = 18",134 ± 11.3 mg/dL
same,Triglycerides,"[2]; before, n = 18",136 ± 10.1 mg/dL
same,Increase in the pork fat globules diameter,[3],50%
same,Lycopene in cerumen,[4]; before,0.29 ± 0.05 ng/mg
same,Lycopene in serum,[4]; before,137 ± 14.5 ng/mL
same,concentration at 1 month,"[4]; cerumen, read-out: Lycopene in cerumen",900 ± 120 ng/g
same,concentration at 1 month,"[4]; serum, read-out: Lycopene in serum",310 ± 29.9 ng/mL
same,Bacterial load on the surface of the skin,[5],significant reduction of the bacterial load
same,Lycopene presence in desquamated corneocytes,[5],significantly increased for the whole period of supplementation
same,Lycopene presence in sebum,[5],lycopene amount growth only during the first two weeks of supplementation
same,Rate of desquamation of corneocytes,[5],noticeably lower
same,Sebum production,[5],significant increase of the sebum production
same,Diameter of spread lipid drops relative to intact oil,[6]; [7],6-8 fold
same,Increase of spreadability on the surface of the water,[6]; sunflower oil,23 fold
